# Measurements reported in the supplement of paper PMC10307832.
# Compound: C=CCNC1=C2C[C@@H](C)C[C@H](OC)[C@H](O)[C@@H](C)/C=C(\C)[C@H](OC(N)=O)[C@@H](OC)/C=C\C=C(/C)C(=O)NC(=CC1=O)C2=O [17-AAG] + CS(=O)(=O)N1CCN(Cc2cc3nc(-c4cccc5[nH]ncc45)nc(N4CCOCC4)c3s2)CC1 [Pictilisib] (partner 1 µM)
# Test: relative viability (nuclei count vs DMSO), 5 days (fraction); higher = more cells survive
# In short: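 Lung cancer cell lines in 1536-well plates got either a single drug or a fixed anchor-drug dose together with five library-drug doses (not always all listed) in √10 steps, by pin tool, on the day after seeding. Nuclei were counted after 5 days, and relative viability is the treated-to-vehicle ratio of nuclei counts. Values are medians of duplicate plates.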
Cell Line,relative viability (first compound 0.00128 µM),relative viability (first compound 0.004048 µM),relative viability (first compound 0.0128 µM),relative viability (first compound 0.04048 µM),relative viability (first compound 0.128 µM)
201T,0.679,0.667,0.663,0.546,0.424
A549,0.543,0.114,0.0532,0.0751,0.0642
A-427,0.684,0.737,0.765,0.748,0.286
ABC-1,0.794,0.777,0.829,0.81,0.651
BEN,0.569,0.72,0.656,0.346,0.183
CAL-12T,0.541,0.601,0.417,0.377,0.193
COR-L23,0.703,0.77,0.789,0.38,0.083
COR-L 105,0.394,0.434,0.435,0.324,0.298
Calu-6,0.913,0.867,0.762,0.199,0.133
ChaGo-K-1,0.759,0.801,0.7,0.477,0.26
EBC-1,0.477,0.157,0.13,0.185,0.143
EKVX,0.43,0.472,0.528,0.142,0.101
EMC-BAC-2,0.605,0.598,0.586,0.274,0.202
EPLC-272H,0.291,0.32,0.291,0.169,0.168
H3255,0.424,0.453,0.463,0.203,0.154
HARA,0.49,0.445,0.385,0.16,0.164
HCC-15,0.73,0.774,0.508,0.187,0.121
HCC-44,0.623,0.564,0.319,0.152,0.113
HCC-78,0.238,,0.333,0.24,0.212
HCC-366,0.16,0.0822,0.0477,0.0368,0.0284
HCC-827,1.21,1.03,0.923,,1.02
HOP-62,0.811,0.807,0.748,0.11,0.0928
IA-LM,0.325,0.366,0.182,0.0706,0.0517
LC-2-ad,0.567,0.617,0.123,0.124,0.0943
LCLC-97TM1,0.263,0.228,0.211,0.13,0.104
LCLC-103H,0.58,0.583,0.669,0.73,0.712

Cell Line,relative viability (first compound 0.00128 µM),relative viability (first compound 0.004048 µM),relative viability (first compound 0.0128 µM),relative viability (first compound 0.04048 µM),relative viability (first compound 0.128 µM)
LK-2,0.725,0.659,0.6,0.208,0.175
LOU-NH91,0.573,0.515,0.451,0.384,0.332
LU99A,0.308,0.377,0.232,0.228,0.144
LXF-289,0.823,0.805,0.239,0.107,0.0836
NCI-H23,0.468,0.517,0.224,0.179,0.145
NCI-H322M,0.553,0.564,0.523,0.259,0.279
NCI-H358,0.392,0.219,0.125,0.131,0.126
NCI-H441,0.582,0.334,0.285,0.216,0.124
NCI-H460,0.404,0.462,0.193,0.0668,0.0737
NCI-H520,0.275,0.254,0.207,0.167,0.161
NCI-H596,0.363,0.304,0.417,0.42,0.253
NCI-H647,0.454,0.253,0.0973,0.15,0.106
NCI-H650,0.96,1.05,0.744,0.776,0.329
NCI-H661,0.39,0.534,0.363,0.259,0.275
NCI-H727,0.405,0.513,0.217,0.171,0.198
NCI-H838,0.498,0.306,0.174,0.157,0.132
NCI-H1299,0.802,0.791,0.698,0.151,0.0717
NCI-H1355,0.512,0.439,0.264,0.183,0.151
NCI-H1395,0.659,0.614,0.381,0.354,0.435
NCI-H1437,0.534,0.489,0.144,0.0969,0.0847
NCI-H1563,0.67,0.647,0.604,0.614,0.563
NCI-H1650,0.49,0.212,0.128,0.173,0.144
NCI-H1651,0.568,0.54,0.363,0.148,0.131
NCI-H1666,0.585,0.302,0.265,0.196,0.157
NCI-H1703,0.235,0.181,0.188,0.168,0.141
NCI-H1734,0.447,0.468,0.361,0.205,0.151

Cell Line,relative viability (first compound 0.00128 µM),relative viability (first compound 0.004048 µM),relative viability (first compound 0.0128 µM),relative viability (first compound 0.04048 µM),relative viability (first compound 0.128 µM)
NCI-H1755,0.446,0.407,0.229,0.126,0.09
NCI-H1792,0.326,0.308,0.253,0.171,0.143
NCI-H1793,0.309,0.172,0.193,0.188,0.144
NCI-H1915,0.848,0.992,0.832,0.207,0.0693
NCI-H1944,0.352,0.349,0.324,0.28,0.24
NCI-H1975,0.3,0.176,0.116,0.119,0.103
NCI-H1993,0.797,0.806,0.667,0.6,0.638
NCI-H2009,0.744,0.829,0.744,0.277,0.091
NCI-H2023,0.292,0.173,0.0917,0.0989,0.0852
NCI-H2085,0.474,0.416,0.448,0.475,0.529
NCI-H2087,0.867,0.651,0.356,0.229,0.175
NCI-H2126,0.509,0.533,0.492,0.316,0.284
NCI-H2170,0.279,0.284,0.167,0.153,0.175
NCI-H2228,0.346,0.153,0.128,0.148,0.102
NCI-H2347,0.671,0.478,0.508,0.717,0.43
NCI-H2405,0.521,0.248,0.175,0.179,0.164
NCI-H3122,0.489,0.375,0.195,0.194,0.161
PC-3 [JPC-3],0.795,0.791,0.727,,0.586
PC-14,0.654,0.219,0.057,0.067,0.0563
RERF-LC-KJ,0.591,0.688,0.324,0.242,0.21
SK-LU-1,0.558,0.374,0.199,0.127,0.141
SK-MES-1,0.414,0.387,0.139,0.134,0.1
SW 1573,0.549,0.531,0.206,0.19,0.104
UMC-11,0.824,0.809,0.662,0.219,0.143
